This data set can be described thus: in vitro. Particulars: human, uninfected MT-4 cells.
A word on the CC50: it is the concentration that lowers cell viability or growth by half. Read a high CC50 as lower toxicity to the cells. In turn, `CC[C@@H](OP(=O)(O)O)[C@@H](C)OC(=O)OCOc1c2n(cc(C(=O)NCc3ccc(F)cc3F)c1=O)[C@@H]1CN(C2=O)[C@@H](C)CC[C@]12CC(C)=NO2` [Compound 76, (((3′S,5S,7′R)-10′-((2,4-difluorobenzyl)carbamoyl)-3,3′-dimethyl-1′,11′-dioxo-1′,4′,5′,11′-tetrahydro-3′H,4H,7′H-spiro[isoxazole-5,6′-[2,7]methanopyrido[1,2-a][1,4]diazonin]-12′-yl)oxy)methyl ((2R,3R)-3-(phosphonooxy)pentan-2-yl) carbonate] came in with a half-maximal cytotoxic concentration (CC50) at 5 days of 24.8 µM. This counts as double-digit micromolar. As for `COC1=NO[C@@]2(CC[C@H](C)N3C[C@H]2n2cc(C(=O)NCc4ccc(F)cc4F)c(=O)c(OCOC(=O)OC[C@H](OP(=O)(O)O)C(C)C)c2C3=O)C1` [Compound 81, (((3′S,5S,7′R)-10′-((2,4-difluorobenzyl)carbamoyl)-3-methoxy-3′-methyl-1′,11′-dioxo-1′,4′,5′,11′-tetrahydro-3′H,4H,7′H-spiro[isoxazole-5,6′-[2,7]methanopyrido[1,2-a][1,4]diazonin]-12′-yl)oxy)methyl ((R)-3-methyl-2-(phosphonooxy)butyl) carbonate], the figure is 36.9 µM; as for `CC[C@H](OP(=O)(O)O)[C@H](C)OC(=O)OCOc1c2n(cc(C(=O)NCc3ccc(F)cc3F)c1=O)[C@@H]1CN(C2=O)[C@@H](C)CC[C@]12CC(C)=NO2` [Compound 72, (((3′S,5S,7′R)-10′-((2,4-difluorobenzyl)carbamoyl)-3,3′-dimethyl-1′,11′-dioxo-1′,4′,5′,11′-tetrahydro-3′H,4H,7′H-spiro[isoxazole-5,6′-[2,7]methanopyrido[1,2-a][1,4]diazonin]-12′-yl)oxy)methyl ((2S,3S)-3-(phosphonooxy)pentan-2-yl) carbonate], 27.2 µM.

`CC[C@H](OP(=O)(O)O)[C@@H](C)OC(=O)OCOc1c2n(cc(C(=O)NCc3ccc(F)cc3F)c1=O)[C@@H]1CN(C2=O)[C@@H](C)CC[C@]12CC(C)=NO2` [Compound 77, (((3′S,5S,7′R)-10′-((2,4-difluorobenzyl)carbamoyl)-3,3′-dimethyl-1′,11′-dioxo-1′,4′,5′,11′-tetrahydro-3′H,4H,7′H-spiro[isoxazole-5,6′-[2,7]methanopyrido[1,2-a][1,4]diazonin]-12′-yl)oxy)methyl ((2R,3S)-3-(phosphonooxy)pentan-2-yl) carbonate] displayed a CC50 at 5 days of 37 µM.

In turn, `CC[C@@H](OP(=O)(O)O)[C@H](C)OC(=O)OCOc1c2n(cc(C(=O)NCc3ccc(F)cc3F)c1=O)[C@@H]1CN(C2=O)[C@@H](C)CC[C@]12CC(OC)=NO2` [Compound 75, (((3′S,5S,7′R)-10′-((2,4-difluorobenzyl)carbamoyl)-3-methoxy-3′-methyl-1′,11′-dioxo-1′,4′,5′,11′-tetrahydro-3′H,4H,7′H-spiro[isoxazole-5,6′-[2,7]methanopyrido[1,2-a][1,4]diazonin]-12′-yl)oxy)methyl ((2S,3R)-3-(phosphonooxy)pentan-2-yl) carbonate] showed a CC50 at 5 days of 34.3 µM. The same measure for `COC1=NO[C@@]2(CC[C@H](C)N3C[C@H]2n2cc(C(=O)NCc4ccc(F)cc4F)c(=O)c(OCOC(=O)OC[C@@H](OP(=O)(O)O)C(C)C)c2C3=O)C1` [Compound 82, (((3′S,5S,7′R)-10′-((2,4-difluorobenzyl)carbamoyl)-3-methoxy-3′-methyl-1′,11′-dioxo-1′,4′,5′,11′-tetrahydro-3′H,4H,7′H-spiro[isoxazole-5,6′-[2,7]methanopyrido[1,2-a][1,4]diazonin]-12′-yl)oxy)methyl ((S)-3-methyl-2-(phosphonooxy)butyl) carbonate]: 39.7 µM; for `CC[C@@H](OP(=O)(O)O)[C@H](C)OC(=O)OCOc1c2n(cc(C(=O)NCc3ccc(F)cc3F)c1=O)[C@@H]1CN(C2=O)[C@@H](C)CC[C@]12CC(C)=NO2` [Compound 73, (((3′S,5S,7′R)-10′-((2,4-difluorobenzyl)carbamoyl)-3,3′-dimethyl-1′,11′-dioxo-1′,4′,5′,11′-tetrahydro-3′H,4H,7′H-spiro[isoxazole-5,6′-[2,7]methanopyrido[1,2-a][1,4]diazonin]-12′-yl)oxy)methyl ((2S,3R)-3-(phosphonooxy)pentan-2-yl) carbonate]: 30.8 µM.

Molecule `CC1=NO[C@@]2(CC[C@H](C)N3C[C@H]2n2cc(C(=O)NCc4ccc(F)cc4F)c(=O)c(OCOC(=O)OC[C@H](OP(=O)(O)O)C(C)C)c2C3=O)C1` [Compound 80, (((3′S,5S,7′R)-10′-((2,4-difluorobenzyl)carbamoyl)-3,3′-dimethyl-1′,11′-dioxo-1′,4′,5′,11′-tetrahydro-3′H,4H,7′H-spiro[isoxazole-5,6′-[2,7]methanopyrido[1,2-a][1,4]diazonin]-12′-yl)oxy)methyl ((R)-3-methyl-2-(phosphonooxy)butyl) carbonate] had a CC50 at 5 days of 27.2 µM. The same measure for `CC[C@H](OP(=O)(O)O)[C@H](C)OC(=O)OCOc1c2n(cc(C(=O)NCc3ccc(F)cc3F)c1=O)[C@@H]1CN(C2=O)[C@@H](C)CC[C@]12CC(OC)=NO2` [Compound 74, (((3′S,5S,7′R)-10′-((2,4-difluorobenzyl)carbamoyl)-3-methoxy-3′-methyl-1′,11′-dioxo-1′,4′,5′,11′-tetrahydro-3′H,4H,7′H-spiro[isoxazole-5,6′-[2,7]methanopyrido[1,2-a][1,4]diazonin]-12′-yl)oxy)methyl ((2S,3S)-3-(phosphonooxy)pentan-2-yl) carbonate]: 26.6 µM; for `CC[C@H](OP(=O)(O)O)[C@@H](C)OC(=O)OCOc1c2n(cc(C(=O)NCc3ccc(F)cc3F)c1=O)[C@@H]1CN(C2=O)[C@@H](C)CC[C@]12CC(OC)=NO2` [Compound 79, (((3′S,5S,7′R)-10′-((2,4-difluorobenzyl)carbamoyl)-3-methoxy-3′-methyl-1′,11′-dioxo-1′,4′,5′,11′-tetrahydro-3′H,4H,7′H-spiro[isoxazole-5,6′-[2,7]methanopyrido[1,2-a][1,4]diazonin]-12′-yl)oxy)methyl ((2R,3S)-3-(phosphonooxy)pentan-2-yl) carbonate]: 45.7 µM; for `CC1=NO[C@@]2(CC[C@H](C)N3C[C@H]2n2cc(C(=O)NCc4ccc(F)cc4F)c(=O)c(OCOC(=O)OCCN(C)C)c2C3=O)C1` [Compound 14, (((3′S,5S,7′R)-10′-((2,4-difluorobenzyl)carbamoyl)-3,3′-dimethyl-1′,11′-dioxo-1′,4′,5′,11′-tetrahydro-3′H,4H,7′H-spiro[isoxazole-5,6′-[2,7]methanopyrido[1,2-a][1,4]diazonin]-12′-yl)oxy)methyl (2-(dimethylamino)ethyl) carbonate]: 17.1 µM. The same measure for `CC[C@@H](OP(=O)(O)O)[C@@H](C)OC(=O)OCOc1c2n(cc(C(=O)NCc3ccc(F)cc3F)c1=O)[C@@H]1CN(C2=O)[C@@H](C)CC[C@]12CC(OC)=NO2` [Compound 78, (((3′S,5S,7′R)-10′-((2,4-difluorobenzyl)carbamoyl)-3-methoxy-3′-methyl-1′,11′-dioxo-1′,4′,5′,11′-tetrahydro-3′H,4H,7′H-spiro[isoxazole-5,6′-[2,7]methanopyrido[1,2-a][1,4]diazonin]-12′-yl)oxy)methyl ((2R,3R)-3-(phosphonooxy)pentan-2-yl) carbonate]: 28.6 µM.

These data come from patent publication US20250120989A1, “BRIDGED TRICYCLIC CARBAMOYLPYRIDONE COMPOUNDS AND USES THEREOF” (priority 2023, published 2025).
